This is an account of results in patent publication US20190284293A1, “COMBINATION THERAPY WITH ANTI-CD73 ANTIBODIES” (BRISTOL-MYERS SQUIBB COMPANY, priority 2016, published 2019).

In assay [1] the target is T1, endogenous CD73 activity in Calu-6 cells (Homo sapiens, UniProt P21589).
T1 construct: Calu6 (CD73 endogenous expressors; human pulmonary adenocarcinoma cell line); endogenous in cells; host or cells: Calu6 (Calu-6) human pulmonary adenocarcinoma cells
T1 sequence (P21589 27-549): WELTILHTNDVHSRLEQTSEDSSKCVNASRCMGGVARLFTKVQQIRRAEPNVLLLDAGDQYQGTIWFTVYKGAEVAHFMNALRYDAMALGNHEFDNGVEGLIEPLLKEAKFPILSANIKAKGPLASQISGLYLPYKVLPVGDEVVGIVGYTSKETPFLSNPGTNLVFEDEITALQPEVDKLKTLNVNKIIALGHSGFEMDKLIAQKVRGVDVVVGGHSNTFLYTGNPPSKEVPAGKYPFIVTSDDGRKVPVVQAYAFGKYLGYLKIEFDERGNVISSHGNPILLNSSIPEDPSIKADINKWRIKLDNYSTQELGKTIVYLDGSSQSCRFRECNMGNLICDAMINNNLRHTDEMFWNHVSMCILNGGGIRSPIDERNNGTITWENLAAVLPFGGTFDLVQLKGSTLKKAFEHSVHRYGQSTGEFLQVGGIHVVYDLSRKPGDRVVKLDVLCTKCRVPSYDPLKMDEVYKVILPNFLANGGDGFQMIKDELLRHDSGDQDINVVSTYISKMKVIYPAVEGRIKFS
Description: Dual cell line HTRF cAMP assay (Calu-6 and HEK293/A2AR cells). Format: cell-based.
Description: CD73 antibodies were serial diluted with PBS buffer containing 0.2% BSA, and plated 5 μl/well in 384 well white bottom proxiplate (PerkinElmer, Waltham, Mass.). Calu-6 cells were harvested and resuspend in PBS containing 0.2% BSA, then 5 μl of cells (300 cells/well) were added to the plate. The cells were incubated with antibodies for 10 minutes at 37° C. […] The cells were further incubated with AMP for 30 minutes at 37° C. During this time, HEK293/A2AR cells were harvested and diluted to 0.4 million/ml in PBS containing 0.2% BSA. They were added into the assay plate at 5 μl/well and continued to incubate at 37° C. for 1 hr. HRTF assays were performed using the homogenous time-resolved fluorescence (HTRE) HiRange cAMP detection kit (Cisbio, Bedford, Mass.) by adding 10 cAMP-conjugated d2 and 10 europium conjugated anti-cAMP antibody in lysis buffer according to the manufacturer's instructions. Plates were incubated at room temperature for 60 minutes and Fluorescence Resonance Energy Transfer (FRET) signals (665 and 615 nM) were read using an EnVision plate reader (PerkinElmer, Waltham, Mass.). The FRET signal was calculated as the ratio of signal from the 665 nm (acceptor) and 615 nm (donor) channels and multiplied by 10,000. IC50 and Ymax were measured. […] All calculations were determined as a percentage of inhibition compared to this control, which was set to 100%.

The next assay deals with cyno FcγRs. Description: SPR binding of constructs to cyno FcγRs. As to conditions: read-out: binding affinity to cyno FcγRs. Background: SPR reads the build-up and loss of mass on a sensor chip optically.
Another assay has as its target all other FcγRs. In words: SPR binding of constructs to human FcγRs. As to conditions: read-out: binding affinity to all other FcγRs. The procedure:
Binding of the constructs to human FcγRs was measured via SPR. hCD64 and hCD32a-H131 binding data for IgG1.1 and IgG2 molecules were consistent with expected values for the different Fcs. IgG1.1f is the most inert Fc.

For another assay, the target named is human FcRn (Homo sapiens, UniProt P55899). In words: SPR binding to human FcRn. As to conditions: strong at pH6, weak binding with fast dissociation at pH 7.4.

pIC50, pKd: −log10 of the molar value.

Sequence of human FcRn (P55899 24-297 limits assumed): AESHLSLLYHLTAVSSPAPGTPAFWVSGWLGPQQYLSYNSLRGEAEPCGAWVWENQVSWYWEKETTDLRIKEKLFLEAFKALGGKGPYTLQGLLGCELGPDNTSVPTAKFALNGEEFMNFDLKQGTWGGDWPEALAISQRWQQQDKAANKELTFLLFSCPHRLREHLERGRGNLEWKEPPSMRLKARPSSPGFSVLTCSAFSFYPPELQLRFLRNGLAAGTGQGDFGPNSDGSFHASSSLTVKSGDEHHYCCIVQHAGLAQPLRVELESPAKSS
Sequence of human FcRn (P61769 21-119 partner): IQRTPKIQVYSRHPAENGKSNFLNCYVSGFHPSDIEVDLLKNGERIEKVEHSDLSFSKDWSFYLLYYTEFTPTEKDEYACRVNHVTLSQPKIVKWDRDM

One may read the pIC50 as the negative decadic logarithm of the IC50, by convention in mol/L. `Nc1ncnc2c1ncn2[C@@H]1O[C@H](COP(=O)(O)CP(=O)(O)O)[C@@H](O)[C@H]1O` [APCP] had a negative logarithm of the IC50 (pIC50) in assay [1] (cAMP assay) of 8.89. The compound also registered a Ymax in assay [1] (percentage of inhibition compared to 100 nM 11F11 set to 100%) of 97.
As to “IgG2-C219S-G1.1f: effectorless IgG1/IgG2 hybrid constant region: CH1 and hinge from IgG2 (C219S), CH2 and CH3 of IgG1 (A330S/P331S); SEQ ID NO:169”, the pKd at cyno FcγRs is below 5.30; at all other FcγRs it was above 5.30. Besides, in the assay with human FcRn, the “binding to human FcRn” value is “pH-dependent binding”.
